PubChem BioAssay (NCI)
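The concentration for 50% growth inhibition is given as GI50. At the TGI there is no net growth.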

Experiments:
Assay in all cases: growth of human tumour cells (NCI), 384-well format
SK-OV-3 ovarian = system: SK-OV-3 ovarian
NCI-H226 lung = system: NCI-H226 lung
UACC-257 melanoma = system: UACC-257 melanoma
A549 NSCLC = system: A549 NSCLC
CAKI-1 renal = system: CAKI-1 renal
UACC-62 melanoma = system: UACC-62 melanoma
SR leukemia = system: SR leukemia
MDA-MB-231 breast = system: MDA-MB-231 breast
OVCAR-3 ovarian = system: OVCAR-3 ovarian
HCT-15 colon = system: HCT-15 colon
NCI-H23 lung = system: NCI-H23 lung
NCI/ADR-RES ovarian = system: NCI/ADR-RES ovarian
OVCAR-4 ovarian = system: OVCAR-4 ovarian
HL-60(TB) leukemia = system: HL-60(TB) leukemia
A498 renal = system: A498 renal
HOP-62 NSCLC = system: HOP-62 NSCLC
SF-268 CNS = system: SF-268 CNS
SK-MEL-28 melanoma = system: SK-MEL-28 melanoma
HOP-92 NSCLC = system: HOP-92 NSCLC
BT-549 breast = system: BT-549 breast
CCRF-CEM leukemia = system: CCRF-CEM leukemia
MOLT-4 leukemia = system: MOLT-4 leukemia
SF-539 CNS = system: SF-539 CNS
SK-MEL-2 melanoma = system: SK-MEL-2 melanoma
IGROV1 ovarian = system: IGROV1 ovarian
OVCAR-8 ovarian = system: OVCAR-8 ovarian
HT29 colon = system: HT29 colon
MDA-MB-435 melanoma = system: MDA-MB-435 melanoma
NCI-H460 NSCLC = system: NCI-H460 NSCLC
OVCAR-5 ovarian = system: OVCAR-5 ovarian
SNB-75 CNS = system: SNB-75 CNS
SW-620 colon = system: SW-620 colon
PC-3 prostate = system: PC-3 prostate
COLO 205 colon = system: COLO 205 colon
SK-MEL-5 melanoma = system: SK-MEL-5 melanoma
HS 578T breast = system: HS 578T breast
MCF7 breast = system: MCF7 breast
ACHN renal = system: ACHN renal
EKVX NSCLC = system: EKVX NSCLC
RXF 393 renal = system: RXF 393 renal
SN12C renal = system: SN12C renal
RPMI-8226 leukemia = system: RPMI-8226 leukemia
NCI-H522 lung = system: NCI-H522 lung
KM12 colon = system: KM12 colon
M14 melanoma = system: M14 melanoma
DU-145 prostate = system: DU-145 prostate
786-0 renal = system: 786-0 renal
SF-295 CNS = system: SF-295 CNS
NCI-H322M lung = system: NCI-H322M lung
MDA-MB-468 breast = system: MDA-MB-468 breast
TK-10 renal = system: TK-10 renal
HCC-2998 colon = system: HCC-2998 colon
U251 glioblastoma = system: U251 glioblastoma
MALME-3M melanoma = system: MALME-3M melanoma
T-47D breast = system: T-47D breast
SNB-19 CNS = system: SNB-19 CNS

In the case of `O=c1cc(N2CCOCC2)oc2c(-c3ccccc3)cccc12`, the GI50 (SK-OV-3 ovarian) is reported as 3.64 µM, the TGI (SK-OV-3 ovarian) is reported as 19.7 µM and the GI50 (NCI-H226 lung) is reported as 3.45 µM. The TGI (NCI-H226 lung) was 10.9 µM, the GI50 (UACC-257 melanoma) was 16.9 µM and the TGI (UACC-257 melanoma) was 51.3 µM. The GI50 (A549 NSCLC) was 5.87 µM, the TGI (A549 NSCLC) was 27.9 µM and the GI50 (CAKI-1 renal) was 1.89 µM. The TGI (CAKI-1 renal) was 9.03 µM, the GI50 (UACC-62 melanoma) was 8.87 µM and the TGI (UACC-62 melanoma) was 23.3 µM. The GI50 (SR leukemia) was 2.2 µM, the TGI (SR leukemia) was 5.98 µM and the GI50 (MDA-MB-231 breast) was 4.13 µM. It also gave a TGI (MDA-MB-231 breast) of 45.8 µM, a GI50 (OVCAR-3 ovarian) of 6.36 µM and a TGI (OVCAR-3 ovarian) of 27.9 µM. The GI50 (HCT-15 colon) was 6.35 µM, the TGI (HCT-15 colon) was 90.2 µM and the GI50 (NCI-H23 lung) was 8.85 µM. The TGI (NCI-H23 lung) was 32.4 µM, the GI50 (NCI/ADR-RES ovarian) was 5.08 µM and the TGI (NCI/ADR-RES ovarian) was 21.8 µM. The GI50 (OVCAR-4 ovarian) was 1.76 µM, the TGI (OVCAR-4 ovarian) was 9.3 µM and the GI50 (HL-60(TB) leukemia) was 2.6 µM. For the same compound, the TGI (HL-60(TB) leukemia) was 12.6 µM, the GI50 (A498 renal) was 1.86 µM and the TGI (A498 renal) was 8.98 µM. For the same compound, the GI50 (HOP-62 NSCLC) was 5.17 µM, the TGI (HOP-62 NSCLC) was 32.8 µM and the GI50 (SF-268 CNS) was 5.91 µM. It also gave a TGI (SF-268 CNS) of 28.1 µM, a GI50 (SK-MEL-28 melanoma) of 5.44 µM and a TGI (SK-MEL-28 melanoma) of 30.7 µM. For the same compound, the GI50 (HOP-92 NSCLC) was 4.79 µM, the TGI (HOP-92 NSCLC) was 43.2 µM and the GI50 (BT-549 breast) was 2.61 µM. For the same compound, the TGI (BT-549 breast) was 14.4 µM, the GI50 (CCRF-CEM leukemia) was 4.08 µM and the TGI (CCRF-CEM leukemia) was 16.1 µM. The GI50 (MOLT-4 leukemia) was 3.86 µM, the TGI (MOLT-4 leukemia) was 15.2 µM and the GI50 (SF-539 CNS) was 10.1 µM. It also gave a TGI (SF-539 CNS) of 37 µM, a GI50 (SK-MEL-2 melanoma) of 20.1 µM and a TGI (SK-MEL-2 melanoma) of 38.9 µM. For the same compound, the GI50 (IGROV1 ovarian) was 2.54 µM, the TGI (IGROV1 ovarian) was 7.63 µM and the GI50 (OVCAR-8 ovarian) was 4.9 µM. For the same compound, the TGI (OVCAR-8 ovarian) was 32.1 µM, the GI50 (HT29 colon) was 6.69 µM and the TGI (HT29 colon) was 28.7 µM. It also gave a GI50 (MDA-MB-435 melanoma) of 10.3 µM, a TGI (MDA-MB-435 melanoma) of 32.1 µM and a GI50 (NCI-H460 NSCLC) of 5.91 µM. The TGI (NCI-H460 NSCLC) was 66.3 µM, the GI50 (OVCAR-5 ovarian) was 4.02 µM and the TGI (OVCAR-5 ovarian) was 39.1 µM. For the same compound, the GI50 (SNB-75 CNS) was 1.27 µM, the TGI (SNB-75 CNS) was 12.2 µM and the GI50 (SW-620 colon) was 18.9 µM. The TGI (SW-620 colon) was over 100 µM, the GI50 (PC-3 prostate) was 3.18 µM and the TGI (PC-3 prostate) was 18.3 µM. It also gave a GI50 (COLO 205 colon) of 10.1 µM, a TGI (COLO 205 colon) of 22.6 µM and a GI50 (SK-MEL-5 melanoma) of 10.8 µM. It also gave a TGI (SK-MEL-5 melanoma) of 23.5 µM, a GI50 (HS 578T breast) of 2.78 µM and a TGI (HS 578T breast) of 9.32 µM. For the same compound, the GI50 (MCF7 breast) was 3 µM, the TGI (MCF7 breast) was 25.6 µM and the GI50 (ACHN renal) was 7.85 µM. For the same compound, the TGI (ACHN renal) was 26.8 µM, the GI50 (EKVX NSCLC) was 4.43 µM and the TGI (EKVX NSCLC) was 26.7 µM. The GI50 (RXF 393 renal) was 2.94 µM, the TGI (RXF 393 renal) was 16.6 µM and the GI50 (SN12C renal) was 8.03 µM. For the same compound, the TGI (SN12C renal) was 97.5 µM, the GI50 (RPMI-8226 leukemia) was 2.46 µM and the TGI (RPMI-8226 leukemia) was 8.77 µM. The GI50 (NCI-H522 lung) was 2.44 µM, the TGI (NCI-H522 lung) was 10.9 µM and the GI50 (KM12 colon) was 14 µM. It also gave a TGI (KM12 colon) of 81.7 µM, a GI50 (M14 melanoma) of 4.81 µM and a TGI (M14 melanoma) of 29 µM. It also gave a GI50 (DU-145 prostate) of 8.8 µM, a TGI (DU-145 prostate) of 55.5 µM and a GI50 (786-0 renal) of 7.17 µM. It also gave a TGI (786-0 renal) of 93.5 µM, a GI50 (SF-295 CNS) of 17.8 µM and a TGI (SF-295 CNS) of over 100 µM. It also gave a GI50 (NCI-H322M lung) of 12.7 µM, a TGI (NCI-H322M lung) of 73.2 µM and a GI50 (MDA-MB-468 breast) of 2.24 µM. It also gave a TGI (MDA-MB-468 breast) of 7.78 µM, a GI50 (TK-10 renal) of 2.79 µM and a TGI (TK-10 renal) of 15.4 µM. The GI50 (HCC-2998 colon) was 12.3 µM, the TGI (HCC-2998 colon) was 33 µM and the GI50 (U251 glioblastoma) was 16.4 µM. It also gave a TGI (U251 glioblastoma) of 58.7 µM, a GI50 (MALME-3M melanoma) of 2.12 µM and a TGI (MALME-3M melanoma) of 8.78 µM. The GI50 (T-47D breast) was 3.6 µM, the TGI (T-47D breast) was 23.4 µM and the GI50 (SNB-19 CNS) was 23.7 µM. It also gave a TGI (SNB-19 CNS) of over 100 µM.
